# Square brackets hold non-standard residues; d marks the D form. Ends that are not written are not given here. pT = C[C@@H](OP(=O)(O)O)[C@H](N)C(=O)O; pS = N[C@@H](COP(=O)(O)O)C(=O)O
# Experiments:
# [1] = test system: unexpanded lymphocyte cultures (CD8^+ T cells); assay: ICS for MHC-I-pP reactivity of lymphocyte cultures without expansion (Table 23, No Expansion); settings: HH6
# [2] = test system: expanded TIL / IHL cultures; assay: ICS for MHC-I-pP reactivity of liver-derived lymphocyte cultures after unspecific rapid expansion protocol (REP); format: cell-based, human
# CD8^+ T cells (PBMCs) = assay: Intracellular cytokine staining (ICS) of PBMCs after 7 days of stimulation with MHC-I-pP (healthy donors, HH patients); format: cell-based, human; settings: for Reactive CD8^+ T cell population, HH2: HH patient HH2; for Reactive CD8^+ T cell population, HH3: HH patient HH3; for Reactive CD8^+ T cell population, HH8: HH patient HH8; for Reactive CD8^+ T cell population, HH11: HH patient HH11
# Procedure: From this, CD8^+ T cell responses against newly identified MHC class I-associated phosphopeptides in healthy individuals and patients with chronic liver disease were investigated. Twenty-one of the newly identified HCC-associated HLA-A*0201-restricted phosphopeptides were selected (see Table 17) for further immunological testing in HLA-A*0201 positive patients. MHC-I-pP-specific cytotoxic CD8^+ T cell responses (ppCTL) were assessed using intracellular cytokine staining (ICS) and several cytokines and surface markers were assessed in parallel. After 7 days of stimulation with the respective MHC-I-pP and no other cytokines, CD3- and CD8-expressing T cells were stained for at least two different cytokines (IFN-γ, TNF-α) and when required CD107a expression as a marker for their cytotoxic potential.
# First, peripheral blood mononuclear cells (PBMCs) from healthy donors and patients with hereditary hemochromatosis (HH) were analyzed. HH is a chronic liver disease characterized by excessive intestinal absorption of dietary iron resulting in a pathological deposition of iron in the liver. PBMCs or lymphocytes from liver tissue were extracted and specifically stimulated with (phospho-) peptides for 7 days before intracellular cytokine staining (ICS). Doublets and dead cells, using a fixable viability dye, were excluded. Lymphocytes were gated on CD3^+ and CD8^+ double positive cells and were analysed for expression of IFNγ, TNFα-, and CD107a.
# [3] = test system: expanded lymphocyte cultures from deceased donor livers, cirrhotic livers and HCC; assay: ICS for MHC-I-pP reactivity of liver-derived lymphocyte cultures after phosphopeptide-specific expansion; format: cell-based, human; settings: for ppCTL response, HCC Distal HCC 1: HCC 1 Distal; for ppCTL response, HCC Tumor HCC 1: HCC 1 Tumor; for ppCTL response, HCC Distal HCC 4: HCC 4 Distal
# [4] = pP-specifically expanded culture
Substance,"Reactive CD8^+ T cells, No Expansion, HH6 [1]","Reactive CD8^+ T cell population, HH2 (CD8^+ T cells (PBMCs))","Reactive CD8^+ T cell population, HH3 (CD8^+ T cells (PBMCs))","Reactive CD8^+ T cell population, HH8 (CD8^+ T cells (PBMCs))","Reactive CD8^+ T cell population, HH11 (CD8^+ T cells (PBMCs))","Reactive CD8^+ T cells, pP-specific Expansion, Do2 [3]","Reactive CD8^+ T cells, pP-specific Expansion, Do4 [3]","Reactive CD8^+ T cells, pP-specific Expansion, HH6 [3]","ppCTL response, Deceased Donor Liver Do 2 [3, 4]","ppCTL response, Deceased Donor Liver Do 3 [3, 4]","ppCTL response, Deceased Donor Liver Do 4 [3, 4]","ppCTL response, Deceased Donor Liver Do 6 [3, 4]","ppCTL response, End-stage Liver Cirrhosis IHL 11 [3, 4]","ppCTL response, End-stage Liver Cirrhosis IHL 13 [3, 4]","ppCTL response, HCC Distal HCC 1 [3, 4]","ppCTL response, HCC Tumor HCC 1 [3, 4]","ppCTL response, HCC Distal HCC 4 [3, 4]",other results
"ALDsGASLLHL: RIPK4 phosphopeptide, HLA-A*0201 (ALD[pS]GASLLHL; listed as Homo sapiens)",2 (2.5-5.0% reactive CD8^-+ T cells),0 (<0.25% reactive CD8^-+ T cells),0 (<0.25% reactive CD8^-+ T cells),0 (<0.25% reactive CD8^-+ T cells),1 (0.25-2.5% reactive CD8^-+ T cells),0 (<0.25% reactive CD8^-+ T cells),0 (<0.25% reactive CD8^-+ T cells),2 (2.5-5.0% reactive CD8^-+ T cells),0 (<0.25% reactive CD8-+ T cells),0 (<0.25% reactive CD8-+ T cells),0 (<0.25% reactive CD8-+ T cells),0 (<0.25% reactive CD8-+ T cells),0 (<0.25% reactive CD8-+ T cells),0 (<0.25% reactive CD8-+ T cells),0 (<0.25% reactive CD8-+ T cells),0 (<0.25% reactive CD8-+ T cells),0 (<0.25% reactive CD8-+ T cells),"Reactive CD8^+ T cells, Non-specific Expansion, Do2 ([2]; Do2): 0 (<0.25% reactive CD8^-+ T cells); Reactive CD8^+ T cells, Non-specific Expansion, Do4 ([2]; Do4): 0 (<0.25% reactive CD8^-+ T cells); Reactive CD8^+ T cells, Non-specific Expansion, HH6 ([2]; HH6): 0 (<0.25% reactive CD8^-+ T cells); Reactive CD8^+ T cell population, HH6 (CD8^+ T cells (PBMCs); HH patient HH6): 0 (<0.25% reactive CD8^-+ T cells); Reactive CD8^+ T cell population, HD1 (CD8^+ T cells (PBMCs); Healthy donor HD1): 0 (<0.25% reactive CD8^-+ T cells); Reactive CD8^+ T cell population, HD4 (CD8^+ T cells (PBMCs); Healthy donor HD4): 0 (<0.25% reactive CD8^-+ T cells); Reactive CD8^+ T cell population, HD5 (CD8^+ T cells (PBMCs); Healthy donor HD5): 0 (<0.25% reactive CD8^-+ T cells); ppCTL response, End-stage Liver Cirrhosis IHL 12 ([3]; pP-specifically expanded culture, End-stage Liver Cirrhosis IHL 12): 0 (<0.25% reactive CD8-+ T cells); ppCTL response, End-stage Liver Cirrhosis IHL 15 ([3]; pP-specifically expanded culture, End-stage Liver Cirrhosis IHL 15): 3 (5-7.5% reactive CD8-+ T cells); ppCTL response, HCC Distal HCC 9 ([3]; pP-specifically expanded culture, HCC 9 Distal): 0 (<0.25% reactive CD8-+ T cells); ppCTL response, HCC Tumor HCC 9 ([3]; pP-specifically expanded culture, HCC 9 Tumor): 0 (<0.25% reactive CD8-+ T cells); ppCTL response, HCC Distal HCC 12 ([3]; pP-specifically expanded culture, HCC 12 Distal): 0 (<0.25% reactive CD8-+ T cells)"
"KLFPDtPLAL: ILF3 phosphopeptide, HLA-A*0201 (KLFPD[pT]PLAL; listed as Homo sapiens)",0 (<0.25% reactive CD8^-+ T cells),0 (<0.25% reactive CD8^-+ T cells),0 (<0.25% reactive CD8^-+ T cells),0 (<0.25% reactive CD8^-+ T cells),0 (<0.25% reactive CD8^-+ T cells),0 (<0.25% reactive CD8^-+ T cells),0 (<0.25% reactive CD8^-+ T cells),0 (<0.25% reactive CD8^-+ T cells),0 (<0.25% reactive CD8-+ T cells),0 (<0.25% reactive CD8-+ T cells),0 (<0.25% reactive CD8-+ T cells),0 (<0.25% reactive CD8-+ T cells),0 (<0.25% reactive CD8-+ T cells),0 (<0.25% reactive CD8-+ T cells),0 (<0.25% reactive CD8-+ T cells),0 (<0.25% reactive CD8-+ T cells),0 (<0.25% reactive CD8-+ T cells),
"RLFsKELRC: TAF13 phosphopeptide, HLA-A*0201 (RLF[pS]KELRC; listed as Homo sapiens)",0 (<0.25% reactive CD8^-+ T cells),2 (2.5-5.0% reactive CD8^-+ T cells),0 (<0.25% reactive CD8^-+ T cells),0 (<0.25% reactive CD8^-+ T cells),,0 (<0.25% reactive CD8^-+ T cells),0 (<0.25% reactive CD8^-+ T cells),0 (<0.25% reactive CD8^-+ T cells),1 (0.25-2.5% reactive CD8-+ T cells),0 (<0.25% reactive CD8-+ T cells),0 (<0.25% reactive CD8-+ T cells),0 (<0.25% reactive CD8-+ T cells),0 (<0.25% reactive CD8-+ T cells),0 (<0.25% reactive CD8-+ T cells),0 (<0.25% reactive CD8-+ T cells),0 (<0.25% reactive CD8-+ T cells),0 (<0.25% reactive CD8-+ T cells),
"RQAsIELPSMAV: LSP1 phosphopeptide, HLA-A*0201 (RQA[pS]IELPSMAV; listed as Homo sapiens)",1 (0.25-2.5% reactive CD8^-+ T cells),0 (<0.25% reactive CD8^-+ T cells),0 (<0.25% reactive CD8^-+ T cells),0 (<0.25% reactive CD8^-+ T cells),0 (<0.25% reactive CD8^-+ T cells),0 (<0.25% reactive CD8^-+ T cells),0 (<0.25% reactive CD8^-+ T cells),0 (<0.25% reactive CD8^-+ T cells),0 (<0.25% reactive CD8-+ T cells),0 (<0.25% reactive CD8-+ T cells),0 (<0.25% reactive CD8-+ T cells),1 (0.25-2.5% reactive CD8-+ T cells),0 (<0.25% reactive CD8-+ T cells),0 (<0.25% reactive CD8-+ T cells),0 (<0.25% reactive CD8-+ T cells),0 (<0.25% reactive CD8-+ T cells),0 (<0.25% reactive CD8-+ T cells),
"RQDsTPGKVFL: NR2C1 phosphopeptide, HLA-A*0201 (RQD[pS]TPGKVFL; listed as Homo sapiens)",2 (2.5-5.0% reactive CD8^-+ T cells),0 (<0.25% reactive CD8^-+ T cells),0 (<0.25% reactive CD8^-+ T cells),0 (<0.25% reactive CD8^-+ T cells),0 (<0.25% reactive CD8^-+ T cells),0 (<0.25% reactive CD8^-+ T cells),0 (<0.25% reactive CD8^-+ T cells),1 (0.25-2.5% reactive CD8^-+ T cells),1 (0.25-2.5% reactive CD8-+ T cells),0 (<0.25% reactive CD8-+ T cells),0 (<0.25% reactive CD8-+ T cells),0 (<0.25% reactive CD8-+ T cells),0 (<0.25% reactive CD8-+ T cells),0 (<0.25% reactive CD8-+ T cells),0 (<0.25% reactive CD8-+ T cells),0 (<0.25% reactive CD8-+ T cells),0 (<0.25% reactive CD8-+ T cells),
"RQLsSGVSEI: HSPB1 phosphopeptide, HLA-A*0201 (RQL[pS]SGVSEI; listed as Homo sapiens)",2 (2.5-5.0% reactive CD8^-+ T cells),0 (<0.25% reactive CD8^-+ T cells),0 (<0.25% reactive CD8^-+ T cells),0 (<0.25% reactive CD8^-+ T cells),0 (<0.25% reactive CD8^-+ T cells),0 (<0.25% reactive CD8^-+ T cells),0 (<0.25% reactive CD8^-+ T cells),0 (<0.25% reactive CD8^-+ T cells),0 (<0.25% reactive CD8-+ T cells),0 (<0.25% reactive CD8-+ T cells),0 (<0.25% reactive CD8-+ T cells),0 (<0.25% reactive CD8-+ T cells),0 (<0.25% reactive CD8-+ T cells),0 (<0.25% reactive CD8-+ T cells),0 (<0.25% reactive CD8-+ T cells),0 (<0.25% reactive CD8-+ T cells),0 (<0.25% reactive CD8-+ T cells),
